This assay deals with gamma-aminobutyric acid type A (GABAA) receptor α1(L264T)β2γ2L (Homo sapiens, UniProt P14867+P47870, P14867:L291T). The assay can be described thus: cell-based.

Molecules are shown by their SMILES.

Chain of gamma-aminobutyric acid type A (GABAA) receptor α1(L264T)β2γ2L (P14867 28-456 L291T): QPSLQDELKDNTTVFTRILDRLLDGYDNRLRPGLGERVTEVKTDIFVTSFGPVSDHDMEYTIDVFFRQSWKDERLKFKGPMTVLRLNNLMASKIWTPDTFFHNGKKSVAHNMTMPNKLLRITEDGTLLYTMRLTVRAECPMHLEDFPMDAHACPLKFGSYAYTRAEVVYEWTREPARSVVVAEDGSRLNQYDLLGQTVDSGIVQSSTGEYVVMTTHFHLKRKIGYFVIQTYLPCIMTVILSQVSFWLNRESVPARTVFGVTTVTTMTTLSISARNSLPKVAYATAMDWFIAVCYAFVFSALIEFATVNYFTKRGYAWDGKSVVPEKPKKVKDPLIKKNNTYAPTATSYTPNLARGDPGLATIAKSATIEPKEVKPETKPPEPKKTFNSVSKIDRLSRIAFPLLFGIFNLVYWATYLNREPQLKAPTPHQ
Chain of gamma-aminobutyric acid type A (GABAA) receptor α1(L264T)β2γ2L (P47870 26-512): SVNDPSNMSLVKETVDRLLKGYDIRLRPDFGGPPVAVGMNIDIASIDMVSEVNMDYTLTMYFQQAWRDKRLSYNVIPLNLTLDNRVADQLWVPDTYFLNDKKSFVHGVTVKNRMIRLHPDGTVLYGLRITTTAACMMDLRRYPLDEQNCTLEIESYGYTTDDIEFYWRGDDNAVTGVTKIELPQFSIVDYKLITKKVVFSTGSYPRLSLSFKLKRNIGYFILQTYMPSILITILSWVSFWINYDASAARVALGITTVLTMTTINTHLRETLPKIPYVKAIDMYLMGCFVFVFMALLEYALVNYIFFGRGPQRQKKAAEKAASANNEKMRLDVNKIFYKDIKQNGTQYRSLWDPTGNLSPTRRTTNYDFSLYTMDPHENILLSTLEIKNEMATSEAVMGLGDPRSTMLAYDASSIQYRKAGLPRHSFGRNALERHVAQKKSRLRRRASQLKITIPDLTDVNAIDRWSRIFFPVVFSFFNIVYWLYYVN
Chain of gamma-aminobutyric acid type A (GABAA) receptor α1(L264T)β2γ2L (P18507 40-475 partner): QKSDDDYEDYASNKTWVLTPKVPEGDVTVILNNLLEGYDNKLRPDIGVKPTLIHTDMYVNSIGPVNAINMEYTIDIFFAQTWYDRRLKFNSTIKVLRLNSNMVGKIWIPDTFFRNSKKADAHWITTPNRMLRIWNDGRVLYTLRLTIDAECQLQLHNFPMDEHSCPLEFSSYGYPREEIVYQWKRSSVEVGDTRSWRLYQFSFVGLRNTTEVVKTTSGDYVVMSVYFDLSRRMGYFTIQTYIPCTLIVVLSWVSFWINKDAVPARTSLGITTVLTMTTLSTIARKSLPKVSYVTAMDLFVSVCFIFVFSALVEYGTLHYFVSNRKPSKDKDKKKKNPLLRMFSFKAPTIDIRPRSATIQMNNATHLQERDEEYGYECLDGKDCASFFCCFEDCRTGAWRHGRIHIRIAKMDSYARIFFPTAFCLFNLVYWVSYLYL

Broadly, the EC50 is the concentration giving half of the maximal effect. A low value points to an effect from little substance. In the case of `C[C@H](c1ccccc1)n1cncc1C(=O)OCCC(=O)O` [MOC-ECA], the EC50 amounted to 3500 ± 630 µM.

Regarding `COC(=O)CCOC(=O)c1cncn1[C@H](C)c1ccccc1` [MOC-etomidate, methoxycarbonyl etomidate], the EC50 is 10 ± 2.5 µM.

These data come from paper PMC3291806 (2011).
